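How tested: cells in 96-well plates exposed to compound for 48 hours at five concentrations. The concentration for full growth arrest is given as TGI.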
How the values were obtained:
Assay in all cases: growth of human tumour cells (NCI), 48 h
786-0 renal = tested on: 786-0 renal
XF 498 CNS = tested on: XF 498 CNS
LOX IMVI melanoma = tested on: LOX IMVI melanoma
HT29 colon = tested on: HT29 colon
COLO 205 colon = tested on: COLO 205 colon
HCT-116 colon = tested on: HCT-116 colon
IGROV1 ovarian = tested on: IGROV1 ovarian
OVCAR-3 ovarian = tested on: OVCAR-3 ovarian
LXFL 529 NSCLC = tested on: LXFL 529 NSCLC
OVCAR-5 ovarian = tested on: OVCAR-5 ovarian
SW-620 colon = tested on: SW-620 colon
SN12C renal = tested on: SN12C renal
HOP-62 NSCLC = tested on: HOP-62 NSCLC
RPMI-8226 leukemia = tested on: RPMI-8226 leukemia
DMS 114 small cell lung = tested on: DMS 114 small cell lung
NCI-H226 lung = tested on: NCI-H226 lung
SF-295 CNS = tested on: SF-295 CNS
SNB-75 CNS = tested on: SNB-75 CNS
NCI-H460 lung = tested on: NCI-H460 lung
K-562 leukemia = tested on: K-562 leukemia
NCI-H23 lung = tested on: NCI-H23 lung
KM20L2 colon = tested on: KM20L2 colon
SK-MEL-28 melanoma = tested on: SK-MEL-28 melanoma
MOLT-4 leukemia = tested on: MOLT-4 leukemia
EKVX NSCLC = tested on: EKVX NSCLC
U251 CNS = tested on: U251 CNS
RXF 393 renal = tested on: RXF 393 renal
OVCAR-8 ovarian = tested on: OVCAR-8 ovarian
A549 NSCLC = tested on: A549 NSCLC
NCI-H522 lung = tested on: NCI-H522 lung
SNB-19 CNS = tested on: SNB-19 CNS
SNB-78 CNS = tested on: SNB-78 CNS
MALME-3M melanoma = tested on: MALME-3M melanoma
M19-MEL melanoma = tested on: M19-MEL melanoma
M14 melanoma = tested on: M14 melanoma
HCT-15 colon = tested on: HCT-15 colon
OVCAR-4 ovarian = tested on: OVCAR-4 ovarian
SK-MEL-2 melanoma = tested on: SK-MEL-2 melanoma
UACC-62 melanoma = tested on: UACC-62 melanoma
UO-31 renal = tested on: UO-31 renal
SK-MEL-5 melanoma = tested on: SK-MEL-5 melanoma
DMS 273 small cell lung = tested on: DMS 273 small cell lung
ACHN renal = tested on: ACHN renal
SF-539 CNS = tested on: SF-539 CNS
SF-268 CNS = tested on: SF-268 CNS
TK-10 renal = tested on: TK-10 renal
KM12 colon = tested on: KM12 colon
SR leukemia = tested on: SR leukemia
CAKI-1 renal = tested on: CAKI-1 renal
HCC-2998 colon = tested on: HCC-2998 colon
HL-60(TB) leukemia = tested on: HL-60(TB) leukemia
SK-OV-3 ovarian = tested on: SK-OV-3 ovarian
A498 renal = tested on: A498 renal
DLD-1 colon = tested on: DLD-1 colon
UACC-257 melanoma = tested on: UACC-257 melanoma
HOP-92 NSCLC = tested on: HOP-92 NSCLC
CCRF-CEM leukemia = tested on: CCRF-CEM leukemia

Measured: TGI

COC(=O)[C@]12CSCN1C(=O)C(C(C)=O)=NN2C(=O)[C@](OC)(c1ccccc1)C(F)(F)F
> 100 µM: 786-0 renal | XF 498 CNS | LOX IMVI melanoma | HT29 colon | COLO 205 colon | HCT-116 colon | IGROV1 ovarian | OVCAR-3 ovarian | LXFL 529 NSCLC | OVCAR-5 ovarian | SW-620 colon | SN12C renal | HOP-62 NSCLC | RPMI-8226 leukemia | DMS 114 small cell lung | NCI-H226 lung | SF-295 CNS | SNB-75 CNS | NCI-H460 lung | K-562 leukemia | NCI-H23 lung | KM20L2 colon | SK-MEL-28 melanoma | MOLT-4 leukemia | EKVX NSCLC | U251 CNS | RXF 393 renal | OVCAR-8 ovarian | A549 NSCLC | NCI-H522 lung | SNB-19 CNS | SNB-78 CNS | MALME-3M melanoma | M19-MEL melanoma | M14 melanoma | HCT-15 colon | OVCAR-4 ovarian | SK-MEL-2 melanoma | UACC-62 melanoma | UO-31 renal | SK-MEL-5 melanoma | DMS 273 small cell lung | ACHN renal | SF-539 CNS | SF-268 CNS | TK-10 renal | KM12 colon

Nc1nc2c(nc(N)n2Cc2ccccc2)c(=O)[nH]1
> 100 µM: SR leukemia | 786-0 renal | XF 498 CNS | LOX IMVI melanoma | HT29 colon | COLO 205 colon | HCT-116 colon | IGROV1 ovarian | OVCAR-3 ovarian | LXFL 529 NSCLC | OVCAR-5 ovarian | SW-620 colon | SN12C renal | CAKI-1 renal | HOP-62 NSCLC | RPMI-8226 leukemia | DMS 114 small cell lung | HCC-2998 colon | SF-295 CNS | HL-60(TB) leukemia | SNB-75 CNS | NCI-H460 lung | K-562 leukemia | NCI-H23 lung | SK-OV-3 ovarian | KM20L2 colon | SK-MEL-28 melanoma | MOLT-4 leukemia | EKVX NSCLC | U251 CNS | RXF 393 renal | OVCAR-8 ovarian | A549 NSCLC | A498 renal | NCI-H522 lung | SNB-19 CNS | DLD-1 colon | MALME-3M melanoma | M19-MEL melanoma | M14 melanoma | HCT-15 colon | OVCAR-4 ovarian | UACC-257 melanoma | SK-MEL-2 melanoma | HOP-92 NSCLC | UACC-62 melanoma | UO-31 renal | SK-MEL-5 melanoma | DMS 273 small cell lung | ACHN renal | CCRF-CEM leukemia | SF-268 CNS | TK-10 renal | KM12 colon
